16 compounds from patent US5981559A, “Azole derivative with leukotriene (LTs) antagonizing activity and thromboxane (TX) A2 antagonizing activity” (Yamanouchi Pharmaceutical Co., Ltd., priority 1994, dated 1999) can be followed below.

Assay [1] relates to ileal contraction by LTD4. As to the kind of experiment: Inhibition of ileal contraction by LTD4 in guinea pig (Test (2)). The arrangement: species or system guinea pig (male Hartley). Particulars: guinea pig ileum, LTD4 10^-9 M; compound incubation 20 minutes. The procedure: (2) Test Method for the Inhibition of Ileal Contraction by LTD4 in Guinea Pig
A male Hartley guinea pig of 500 to 700 g in body weight was sacrificed by head blow. The ileum was set in a Magnus vessel containing 10 ml of Tyrode solution aerated with a 95% O2 +5% CO2 mixture gas at a tension of 1.0 g. The tension generated by the tissue was isometrically measured using a threton gage transducer. Ileal contraction reaction against LTD4 (10^-9 M) was measured in the absence of the compound and then in the presence of the test compound in varied concentrations. Incubation time of the compound was set to 20 minutes.

Assay [2] concerns platelet aggregation induced by U-46619 (stable analog of TXA2). As to the kind of experiment: Inhibition of platelet aggregation induced by U-46619 (Test (1)). Particulars: Cavia porcellus; guinea pig PRP, platelet count 500,000/μl; compound added 2 minutes before U-46619. The format is cell-based, guinea pig (male Hartley). The procedure: (1) Test Method for the Inhibition of Platelet Aggregation Induced by U-46619
Using a plastic syringe containing 1 volume of 3.8% sodium citrate aqueous solution, 9 volumes of blood was collected from the abdominal aorta of a male Hartley guinea pig of about 800 g in body weight. Platelet rich plasma (PRP) was obtained by subjecting the blood to 10 minutes of centrifugation at 270×g, and the remaining blood was further centrifuged at 1,100×g for 10 minutes to give platelet poor plasma (PPP). The PRP was diluted with PPP to control the platelet count to 500,000/μl, and platelet aggregation by a stable analog of TXA2, U-46619 (a chemical name: 9,11-dideoxy-9α,11α-methanoepoxy-prostaglandin F2 α), was measured in accordance with the method of Bone and Cross (Journal of Physiology, vol.168, pp.178-195, 1963).
That is, changes in the light transmittance of PRP by U-46619 (10^-6 […]) was measured using NBS Hematracer. The compound was added 2 minutes before the addition of U-46619, and the IC50 value (50% inhibition concentration) was calculated from the inhibition ratio based on the maximum light transmittance by U-46619.

Assay [3] has as its system U-46619 induced airway resistance increase. The assay is described as follows: Inhibition of U-46619 induced airway resistance increase in guinea pig by oral administration (Test (3)). The format is in vivo, guinea pig (male Hartley). Particulars: 10 mg/kg oral, 1 hour before U-46619 (3 μg/kg i.v.). The procedure: (3) Test Method for the Inhibition of U-46619 Induced Airway Resistance Increase in Guinea Pig by Oral Administration of Compounds
A male Hartley guinea pig (500 to 800 g) was anesthetized with urethane (1.2 g/kg, i.p.) and fixed on the back to insert a tracheal cannula. Spontaneous respiration was stopped with gallamine (1 mg/kg, i.v.) and artificial respiration was carried out at a rate of 60 strokes/min, volume 1 ml/100 g body weight/cycle. After total jugular intravenous administration of U-46619 (3 μg/kg), the increasing airway resistance was measured by a respiration function measuring apparatus (Model 6, Buxco Electronics Inc.). In this case, test compound was orally administered 1 hour before the administration of U-46619, as a dimethyl sulfoxide solution or as a methyl cellulose suspension.
The results were calculated as the inhibition ratio of airway resistance at the time of the administration of 10 mg/kg of the compound.

Assay [4] relates to LTD4-induced vascular permeability acceleration. As to the kind of experiment: Inhibition of LTD4-induced vascular permeability acceleration by oral administration (Test (4)). The format is in vivo, guinea pig (male Hartley). Particulars: 10 mg/kg oral, 1 hour before LTD4 (5 ng/site intracutaneous); dimethyl sulfoxide solution (DMSO). As to the method:
(4) Test Method for the Inhibition of LTD4 -Induced Vascular Permeability Acceleration by Oral Administration of Compounds
A male Hartley guinea pig whose dorsal hair had been cut on the day before the test was subjected to intravenous administration of 1% Evans blue aqueous solution (1 ml/animal). Two minutes thereafter, LTD4 (5 ng/site) was administered inside the dorsal skin of the guinea pig, and the guinea pig was sacrificed by decapitation 30 minutes thereafter. The skin where intracutaneous injection of LTD4 was carried out was collected, and the pigment leaked into the skin was extracted. Amount of the leaked pigment was calculated by measuring its absorbance at 620 nm and used as the index of vascular permeability. The test compound was orally administered as a dimethyl sulfoxide solution 1 hour before the intracutaneous administration of LTD4. The results were calculated as the inhibition ratio at the time of the administration of 10 mg/kg of the compound.

[5] abbreviates: dimethyl sulfoxide solution (DMSO).

With `O=C(O)COc1ccc(CCCS(=O)(=O)c2ccc(Cl)cc2)cc1NC(=O)c1cccc(OCc2nc(C3CC3)cs2)c1` [Example 26, 4-[3-(4-Chlorophenylsulfonyl)propyl]-2-[3-[(4-cyclopropyl-2-thiazolyl)methoxy]benzoylamino]phenoxyacetic acid], the IC50 in assay [1] is 0.00054 µM; in assay [2], 0.079 µM.

With `CCOC(=O)COc1ccc(CCCS(=O)(=O)c2ccc(Cl)cc2)cc1NC(=O)c1cccc(OCc2nc(C3CC3)cs2)c1` [Example 15, Ethyl 4-[3-(4-chlorophenylsulfonyl)propyl]-2-[3-[(4-cyclopropyl-2-thiazolyl]methoxy]benzoylamino]phenoxyacetate], the IC50 in assay [1] was 0.00085 µM; in assay [2] it was 0.063 µM.

Turning to `O=C(O)COc1ccc(CCCS(=O)(=O)c2ccc(Cl)cc2)cc1NC(=O)c1cccc(OCc2nc(C3CCC3)cs2)c1` [Example 31, 4-[3-(4-Chlorophenylsulfonyl)propyl]-2-[3-[(4-cyclobutyl-2-thiazolyl)methoxy]benzoylamino]phenoxyacetic acid], the IC50 came to 0.00028 µM in assay [1] and 0.13 µM in assay [2]. Moreover, in assay [3] (setting [5]), the “Test (3) Inhibition ratio” value came to 72%. Besides, the “Test (4) Inhibition ratio” value in assay [4] turned out to be 40%.

For `O=C(Nc1cc(CCCS(=O)(=O)c2ccc(Cl)cc2)ccc1OCc1nnn[nH]1)c1cccc(OCc2nc3ccccc3s2)c1` [Example 111, 3-(2-benzothiazolylmethoxy)-5'-[3-(4-chlorophenylsulfonyl)propyl]-2'-(1H-tetrazol-5-ylmethoxy)benzanilide], the IC50 came to 0.00026 µM in assay [1] and 0.38 µM in assay [2].

Consider `O=C(Nc1cc(CCCS(=O)(=O)c2ccc(Cl)cc2)ccc1OCc1nnn[nH]1)c1cccc(OCc2nc(C3CCC3)cs2)c1` [Example 74, 5'-[3-(4-Chlorophenylsulfonyl)propyl]-3-[(4-cyclobutyl-2-thiazolyl)methoxy]-2'-(1H-tetrazol-5-ylmethoxy)benzanilide], for which the figures for the IC50 in assay [1] and in assay [2] were 0.00024 µM and 0.54 µM, respectively.

Turning to `CC(C)(C)c1csc(CSc2cccc(C(=O)Nc3cc(CCCS(=O)(=O)c4ccc(Cl)cc4)ccc3OCC(=O)O)c2)n1` [Example 27, 2-[3-[(4-tert-Butyl-2-thiazolyl)methylthio]benzoylamino]-4-[3-(4-chlorophenylsulfonyl)propyl]phenoxyacetic acid], the figures for the IC50 in assay [1] and in assay [2] were 0.00067 µM and 0.21 µM, respectively.

For the compound `CC(C)(C)c1csc(COc2cccc(C(=O)Nc3cc(CCCS(=O)(=O)c4ccc(Cl)cc4)ccc3OC(F)C(=O)O)c2)n1` (centres unmarked) [Example 79, 2-[2-[3-[(4-tert-butyl-2-thiazolyl)methoxy]benzoylamino]-4-[3-(4-chlorophenylsulfonyl)propyl]phenoxy]-2-fluoroacetic acid hydrate], the IC50 in assay [1] was 0.0042 µM; in assay [2], 0.89 µM.

As for `O=C(O)COc1ccc(CCCS(=O)(=O)c2ccc(Cl)cc2)cc1NC(=O)c1cccc(OCc2ccc3ccccc3n2)c1` [Comparative compound], the entries for the “Test (3) Inhibition ratio” value in assay [3] (setting [5]) and in assay [3] (methyl cellulose suspension (MC)) were 27% and 21%, respectively. Besides, in assay [4], the “Test (4) Inhibition ratio” value is listed as 35%.

In the case of `O=C(O)COc1ccc(CCCS(=O)(=O)c2ccc(Cl)cc2)cc1NC(=O)c1cccc(OCc2nc(C3CCCCC3)cs2)c1` [Example 29, 4-[3-(4-Chlorophenylsulfonyl)propyl]-2-[3-[(4-cyclohexyl-2-thiazolyl)methoxy]benzoylamino]phenoxyacetic acid], the IC50 in assay [1] stood at 0.00061 µM; in assay [2], 0.11 µM.

As to `CC(C)(C)c1csc(COc2cccc(C(=O)Nc3cc(CCCS(=O)(=O)c4ccc(Cl)cc4)ccc3OCC(=O)O)c2)n1` [Example 13, 2-[3-[(4-tert-Butyl-2-thiazolyl)methoxy]benzoylamino]-4-[3-(4-chlorophenylsulfonyl)propyl]phenoxyacetic acid], the concentration for half-maximal inhibition (IC50) in assay [1] amounted to 0.00045 µM; in assay [2], 0.055 µM.

As for `O=C(O)CNC(=O)COc1ccc(CCCS(=O)(=O)c2ccc(Cl)cc2)cc1NC(=O)c1cccc(OCc2nc3ccccc3s2)c1` [Example 106, N-[[2-[3-(2-Benzothiazolylmethoxy)benzoylamino]-4-[3-(4-chlorophenylsulfonyl)propyl]phenoxy]acetyl]glycine], the IC50 in assay [1] is 0.00092 µM; in assay [2] it was 1.2 µM.

With `CC(C)(C)c1csc(COc2cccc(C(=O)Nc3cc(CCCS(=O)(=O)c4ccc(Cl)cc4)ccc3OCc3nnn[nH]3)c2)n1` [Example 39, 3-[(4-tert-Butyl-2-thiazolyl)methoxy]-5'-[3-(4-chlorophenylsulfonyl)propyl]-2'-(1H-tetrazol-5-ylmethoxy)benzanilide], the IC50 in assay [1] came to 0.00057 µM; in assay [2], 0.22 µM.

Take `CCOC(=O)COc1ccc(CCCS(=O)(=O)c2ccc(Cl)cc2)cc1NC(=O)c1cccc(OCc2nc(C(C)(C)C)cs2)c1` [Example 6, Ethyl 2-[3-[(4-tert-butyl-2-thiazolyl)methoxy]benzoylamino]-4-[3-(4-chlorophenylsulfonyl)propyl]phenoxyacetate]: the IC50 was found to be 0.00081 µM in assay [1] and 0.45 µM in assay [2].

In the case of `CC(C)(C)c1csc(CCc2cccc(C(=O)Nc3cc(CCCS(=O)(=O)c4ccc(Cl)cc4)ccc3OCC(=O)O)c2)n1` [Example 28, 2-[3-[2-(4-tert-Butyl-2-thiazolyl)ethyl]benzoylamino]-4-[3-(4-chlorophenylsulfonyl)propyl]phenoxyacetic acid], the IC50 in assay [1] is 0.00098 µM; in assay [2], 0.074 µM.

Take `CS(=O)(=O)NC(=O)COc1ccc(CCCS(=O)(=O)c2ccc(Cl)cc2)cc1NC(=O)c1cccc(OCc2nc3ccccc3s2)c1` [Example 107, 2-[2-[3-(2-benzothiazolylmethoxy)benzoylamino]-4-[3-(4-chlorophenylsulfonyl)propyl]phenoxy]-N-(methanesulfonyl)acetamide 0.5 hydrate]: the IC50 in assay [1] worked out at 0.0037 µM; in assay [2], 0.67 µM.

For `Cc1oc(=O)oc1COC(=O)COc1ccc(CCCS(=O)(=O)c2ccc(Cl)cc2)cc1NC(=O)c1cccc(OCc2nc(C(C)(C)C)cs2)c1` [Example 42, (5-methyl-2-oxo-1,3-dioxol-4-yl)methyl=2-[3-[(4-tert-butyl-2-thiazolyl)methoxy]benzoylamino]-4-[3-(4-chlorophenylsulfonyl)propyl]phenoxyacetic acid], the 50% inhibitory concentration (IC50) amounted to 0.00093 µM in assay [1] and 0.42 µM in assay [2].
